Data taken from PMC3551756, “HIV-1 Fusion Is Blocked through Binding of GB Virus C E2D Peptides to the HIV-1 gp41 Disulfide Loop” (PLoS ONE, 2013).

Experiments:
[1] = molecular target: recombinant HIV-1 gp41MN (truncated gp41 ectodomain) (HIV-1 (strain MN)); assay: ELISA; competitive: gp41MN immobilised; E2_(340)-Fc at constant 5 µg/ml with increasing amounts of peptide; bound E2_(340)-Fc detected with anti-human IgG peroxidase antibody
gp120/CCR5 interaction = assay type: binding, HIV-1; settings: 293T cells expressing CCR5; sCD4 added; peptides 0.2 mM, E2_340-Fc 0.6 µM; 1 h 37°C; normalized to Hsp90
Description: Briefly, 293T cells were transiently transfected with either pCD4 or pCCR5 expression plasmids. Verification of expression was performed 2 days after transfection via flow cytometry. After 2 days of cultivation, the cells were resuspended in binding buffer (50 mM HEPES, 5 mM MgCl2, 1 mM CaCl2, 5% BSA, 0.1 mM NaN3, pH 7.5). […] After incubation for 1 h at 37°C, cells were washed with cold PBS and lysed in Triton X-100 and Tween-20 containing buffer. Lysates were separated by a 5% SDS-PAGE and verified with monoclonal gp120 antibody F425 B4a1 (NIH AIDS Research and Reference Reagent Program) or with sheep α-HIV-1-gp120 (Aalto Bio Reagents Ltd.) in Western Blot analyses. HIV-1 gp120 (5 ng) was used as a standard.
In a related approach, the effect of E2 peptides or intact E2 protein on the interaction between gp120 and the coreceptors CCR5 and CXCR4 expressed on cells was tested by immunoblotting. To ensure efficient binding of gp120 to the coreceptors, soluble CD4 (sCD4) was added simultaneously.
Soluble HIV-1 gp120 was added to the CD4-, CCR5-, or CXCR4-expressing cells and binding was investigated by separating the cell lysates on SDS-PAGE and visualized by performing Western Blot analyses.

[2] = test system: HIV-1 Env (NL4-3 gp160, X4env) on 293T cells; assay: HIV-1 gp160 (X4env) binding of FITC-labeled E2 peptides, flow cytometry; settings: FITC-labeled peptides 1 µM, sCD4 pretreated, 1 h 37°C, X4env- vs vector-transfected 293T cells; three independent experiments each in duplicate
Description: 293T cells were transiently transfected with an HIV-1 Env expression vector, coding for the CXCR4-tropic NL4-3 gp160 precursor (X4env) for surface expression of gp120-gp41 Env trimers or empty plasmid as control. After 2 days of cultivation, cells were incubated with 1 µg sCD4 and 1 µM FITC-conjugated E2 peptides for 1 h at 37°C respectively. Subsequently, cells were washed, resuspended in PBS, and analyzed by flow cytometry using a BD™ LSR II flow cytometer (Becton Dickinson Biosciences, Germany). Flow cytometer data were collected with BD FACSDiva™ and analyzed with FCS Express V3. In parallel, gp160 expression was determined by staining with HIV-1 gp120 mAbs (2G12 and 17b) and an anti-human IgG-FITC pAb (Dako, Germany).
Previously, we have shown that the target of the HIV-1-inhibitory E2 peptides is most likely located on the HIV-1 particle, rather than on the cell. The surface of the HIV-1 particle consists of a lipid bilayer with incorporated host cell proteins and a limited number of functional envelope (Env) trimers (on average 14±7). Therefore, we tested whether the HIV-1-inhibitory E2 peptides interact with trimeric HIV-1 Env proteins expressed on the surface of transfected cells. For this purpose, 293T cells were transiently transfected with an HIV-1 Env expression vector, coding for the gp160 precursor of the CXCR4-tropic NL4-3 envelope (X4env). Binding of FITC-labeled E2 peptides was monitored by flow cytometry.
Figure 4 Recombinant E2_340-Fc protein and E2-derived peptides bind HIV-1 gp41. (A) 293T cells expressing NL4-3 envelope (X4env) or empty plasmid as control were incubated with sCD4 and FITC-conjugated E2 peptides, respectively. Peptide binding was analyzed by flow cytometry. Percentages illustrate the increase of cell binding to X4env-transfected cells. The increase is normalized to the background binding of E2 peptides to mock-transfected cells by calculating the RTCN value. […] (C) E2 peptides with increasing amounts were added to recombinant E2_340-Fc protein (at constant concentration) and then transferred to immobilized recombinant gp41MN.

CXCR4 = CXCR4 surface expression, flow cytometry; assay type: cell-based, human; settings: PBMC and TZM-bl cells; E2 peptides 25 µM, SDF-1α 1 µg/ml; 6 hr; FACS; RTCN vs mock; average of two independent experiments each in triplicate
Description: (§1) PHA/IL-2-stimulated PBMC or TZM-bl cells were incubated with E2 peptides (25 µM), phorbol 12-myristate 13-acetate (PMA; 40 ng/ml), SDF-1α (1 µg/ml) or RANTES (50 nM) for 6 hr. CD4, CXCR4 and CCR5 surface expression was analyzed by using standard FACS staining protocols. Cells were washed with PBS and incubated for 30 min at 4°C with PE-labeled antibodies (CD4 clone SK3, CXCR4 clone 12G5, and CCR5 clone 2D7, BD Biosciences, Germany). Subsequently, washed cells were resuspended in PBS and analyzed with a FACSCalibur™ flow cytometer (BD Biosciences, Germany).
(§2) The non-HIV-1-inhibitory peptide P28 derived from the C-terminal part of E2 (residue 271 to 290), served as a negative control.
(§3) CD4, CXCR4 and CCR5 expression on PBMC (A) and TZM-bl cells (B) after preincubation with E2 peptides were determined by flow cytometry analysis. […] Percentages illustrate the ratio-to-cell-negative (RTCN) values that were calculated from the percentage of positive cells and the fluorescence intensity of peptide-incubated cells compared to mock-incubated cells. Columns show average values ±SD of two independent experiments each performed in triplicate. *: p<0.05; **: p<0.01 (mock- vs. inhibitor-incubated cells).

CCR5 = CCR5 surface expression, flow cytometry; assay type: cell-based, human; settings: PBMC and TZM-bl cells; E2 peptides 25 µM, RANTES 50 nM; 6 hr; FACS; RTCN vs mock; average of two independent experiments each in triplicate
Description: as §1, §2, §3

[3] = molecular target: E2_340-Fc / HIV-1 gp41MN interaction (Human immunodeficiency virus type 1 group M subtype B, UniProt P05877); assay type: binding; settings: ELISA, immobilized gp41MN, E2_340-Fc constant (5 µg/ml), increasing peptide; three independent experiments each in duplicate
Description: Flat-bottom, 96-well Microtest ELISA plates (Sarstedt, Germany) were coated overnight at 4°C with recombinant HIV-1 gp120 (0.5 µg/ml), gp41 (0.22 µg/ml) proteins, or with streptavidin (4 µg/ml) in coating buffer (0.1 M NaHCO3, 0.1 M Na2CO3, pH 9.87). Nonspecific binding was blocked (blocking buffer: 1% BSA, 0.1% Tween-20 in phosphate buffer, pH 7.2) for 1 h at room temperature, followed by washing steps (wash buffer: 0.1% Tween in phosphate buffer, pH 7.2). […] All plates were then incubated with recombinant E2_340-Fc or Fc protein in serial dilutions in sample buffer (phosphate buffer, pH 7.2) for 3 hr at room temperature. To perform the competitive ELISAs, the recombinant E2_340-Fc protein was adjusted at 5 µg/ml and the monoclonal gp41 antibodies (246-D, F240, T32, D50, 2F5, 4E10, Chessie 8 [all: NIH AIDS Research and Reference Reagent Program], and 5F3 [Polymun, Austria]) at 100 µM. After washing procedure, the plates were incubated for 1 h with polyclonal rabbit anti-human IgG peroxidase antibody (Dako, Germany) 1∶6000 in sample buffer and washed. Plates were developed with TMB peroxidase substrate solution (KPL, USA), or with OPD/H2O2 solution in the dark. Absorbances (ODs) were read at 450 or 492 nm, respectively, using a multi-channel photometer (ELISA-Reader AxSYM, Abbott Laboratory, USA).
Competitive binding of E2 and gp120 peptides (N35, N35s) with recombinant E2_340-Fc protein to immobilized recombinant gp41MN. Simultaneously to E2_340-Fc incubation peptides of E2 or gp120 were added with increasing amounts.

HIV-1 = settings: ref [33]; cited from earlier work
CD4 = CD4 surface expression, flow cytometry; assay type: cell-based, human; settings: PBMC and TZM-bl cells; E2 peptides 25 µM, PMA 40 ng/ml; 6 hr; FACS; RTCN vs mock; average of two independent experiments each in triplicate
Description: as §1, §2, §3

[4] = test system: HIV-1 NL4-3 / TZM-bl cells; assay: HIV-1 virion-based (BlaM-Vpr) virus-cell fusion assay; settings: standard (pre-CD4 binding) and TAS (post-CD4 binding, 23°C 1 h then 37°C 2 hr); E2 peptides 20 µM, AMD-3100 10 µM, 2F5 0.5 µg/ml, b12 and B4 0.3 µg/ml; five independent experiments each in triplicate
Description: HIV-1 virions containing the BlaM-Vpr chimera were produced as previously described [33]. Briefly, 293T cells were co-transfected with pNL4-3 proviral DNA, pCMV-BlaM-Vpr, and pAdVAntage vectors. After 2 days of cultivation, the virus-containing supernatant was centrifuged for 10 min at 300×g to remove cellular debris. The HIV-1 virion-containing supernatant was overlaid onto a 20% sucrose cushion and ultracentrifuged at 35000×g at 4°C for 90 min. The resulting pellet was resuspended in medium and aliquots were frozen at −80°C until usage.
The virion-based fusion assay was performed essentially as described elsewhere [41]. Briefly, 5×10^4 TZM-bl cells were infected with sucrose-purified HIV-1 NL4-3 virions containing BlaM-Vpr (5 ng p24-Gag per approach). Under temperature-arrested state (TAS) conditions, binding of the HI virions to target cells was allowed at low temperature via spinning inoculation, for which virions were added to cells and centrifuged at 2095×g, 4°C for 30 min. […] BlaM activity was quantified using a fluorescence plate reader. The extent of virus-cell fusion was determined from the ratio of blue (460 nm) and green (510 nm) emission upon exciting the cells at 405 nm.
To find out whether early or late steps of HIV-1 entry are affected by the E2 peptides, the E2 peptide activity was determined before and after gp120/CD4 engagement using the Vpr-β-lactamase (Vpr-BlaM) enzyme-based virus-cell fusion assay under standard (pre-CD4 binding) and temperature-arrested state (TAS; post-CD4 binding) conditions, respectively.
The HIV-inhibitory activity of known HIV-1 entry inhibitors or respective E2 peptides was determined using a virus-cell fusion assay under standard (respective inhibitors were added simultaneously to HIV NL4-3BlaM-Vpr inoculum: pre-CD4 binding) or under TAS (temperature-arrested state) conditions (respective inhibitors were added at low temperature of 23°C for 1 h after spin-inoculation [4°C] and removal of unbound HIV-1 particles: post-CD4 binding). […] Percentages were calculated in relation to mock-treated cells. […]

## N35, HIV-1 gp120 N-terminus peptide (gp120 residue 31 to 65) (from UniProt P04578 31-65)
[1]
  IC50: 0.7 µM

## Cc1ccc(-c2ccc3c(c2)C=C(C(=O)Nc2ccc(C[N+](C)(C)C4CCOCC4)cc2)CCC3)cc1.[Cl-] [TAK-779]
gp120/CCR5 interaction
  interference with gp120 binding to CCR5: clear reduction in the gp120/CCR5

## GBV-C E2 peptide P6-2 (amino acids 45 to 64)
[1]
  IC50: 7 µM

## Ac-TEVSEALGGAGLTGGFYEPL [P28]
[2]
  binding to HIV-1 Env-expressing cells: the increase of binding was not observed
CXCR4
  CXCR4 surface presentation: no relevant effect on HIV-1 receptor presentation
CCR5
  CCR5 surface presentation: no relevant effect on HIV-1 receptor presentation
[3]
  competition with E2_340-Fc for gp41 binding: no effect
HIV-1
  HIV-inhibitory activity (earlier work): non-HIV-1-inhibitory
CD4
  CD4 surface presentation: no relevant effect on HIV-1 receptor presentation

## CCCCCCCCCCCCCC(=O)O[C@@H]1[C@@H](C)[C@@]2(O)[C@@H](C=C(CO)C[C@]3(O)C(=O)C(C)=C[C@@H]23)[C@@H]2C(C)(C)[C@]12OC(C)=O [PMA, phorbol 12-myristate 13-acetate, reference compound]
CD4
  CD4 surface presentation: down-regulation of CD4

## c1cc(CN2CCCNCCNCCCNCC2)ccc1CN1CCCNCCNCCCNCC1 [AMD-3100, reference compound]
[4]
  inhibition of virus-cell fusion, standard versus TAS conditions: act after CD4 engagement

## N35s, C54S variant of the HIV-1 gp120 N-terminus peptide N35 (from UniProt P04578 31-65)
[1]
  IC50: 4.6 µM

## SDF-1α [reference compound]
CXCR4
  CXCR4 surface presentation: down-regulation of the respective coreceptors

## Maraviroc
gp120/CCR5 interaction
  interference with gp120 binding to CCR5: clear reduction in the gp120/CCR5

B1: RANTES: CCR5-ligand (protein, UniProt P13501 24-91, looked up)
C-C motif chemokine 5: SPYSSDTTPCCFAYIARPLPRAHIKEYFYTSGKCSNPAVVFVTRKNRQVCANPEKKWVREYINSLEMS
CCR5
  CCR5 surface presentation: down-regulation of the respective coreceptors
